From US20140005126A1, “SCAFFOLD PEPTIDES” (ISOGENICA LTD, priority 2010, published 2014)
Where a SMILES comes first, the peptide text is derived from it. Bridges are numbered along the chain shown (N, C = ends). The star is where a group is joined. Biotin = O=C1N[C@H]2[C@H](CS[C@H]2CCCCC(=O)*)N1

Tests used:
Plasma stability assay = assay type: in vitro ADME; details: mouse, 250 μM peptide, 37° C., HPLC area, one phase exponential decay
Experimental: Peptides were resuspended in Molecular Biology Grade water at a concentration of 3 mM. The WW-B1 peptide was added to 300 μl mouse plasma (Harlan) or PBS (control) to a final concentration of 250 μM (2 samples). The samples were incubated at 37° C. 40 μl aliquots were removed from sample A at 0, 12, 14, 16, 18, 20 and 22 hr and from sample B at 0, 2, 4, 6, 8 and 10 hr. To purify each aliquot, double the volume of 100% ethanol (80 μl) was added and incubated at −20° C. for a few hours or overnight. The samples were centrifuged and 80 μl supernatant recovered. 40 μl water with 0.1% TFA was added to each sample and 100 μl was injected onto a SunFire C18 HPLC column. Buffer A (0.1% TFA in Water) was run through the column followed by 10-50% Buffer B (0.1% TFA, 5% water in 95% acetonitrile) over 20 min. The fractions from the column were collected and analysed using an AXIMA mass spectrometer.

[1] = Far-UV CD analysis at different temperatures; assay type: physicochemical; details: 0.2 mg/ml peptide
Experimental: Peptides were resuspended in Molecular Biology Grade water or 10 mM sodium phosphate, pH 7, at a concentration of 200 μM to 1.4 mM. Far-UV scans were measured on an Aviv Model 410 spectrometer measuring at 0.5 nm intervals with a 1 sec averaging time, between 190 and 260 nm using 0.2 mg/ml peptide and a 1 nm bandwidth. Three scans were taken in total at each temperature and the results averaged. The CD scans were plotted using Aviv model 4.10 software, and the data were converted to molar ellipticity (M^−1 cm^−1). […] This far-UV spectrum is characteristic of other small structurally characterised β-sheet structures (Koepf et al. 1999, Protein Science, 8, 841-853; see FIG. 15).

[2] = target: T1, binding of VEGFR2 to VEGF (Homo sapiens, UniProt P35968); assay: Competition ELISA: binding of VEGFR2 to VEGF-A coated wells in presence of WW domain peptide
T1 construct: His tag (only implied by detection with penta His-HRP); purchased R&D Systems
Experimental: A competition assay was carried out in which binding of VEGFR2 to VEGF-A (VEGF) was competed by the presence of varying amounts of the selected modified WW domain peptide.
50 ng human VEGF (R&D Systems, Abingdon, UK) 1 μg/ml in PBS was coated per well onto a Maxisorp plate at 37° C. for 140 minutes. The wells were then blocked with 100 μl PBS containing 2% BSA for 55 minutes at room temperature. 1.25 ng VEGFR2 was preincubated with WW-B1 fused to maltose binding protein (MBP) in 50 μl PBS for 45 minutes at room temperature. The activity of the WW-B1 peptide was tested at serial dilutions from 10 μM to 156.25 nM. 50 μl 4% BSA in PBS was added to the preincubated VEGFR2 with WW-B1-MBP and the whole mixture was then added to the VEGF coated ELISA plate and incubated at room temperature for 55 minutes. The plate was then washed with 3 washes in PBS-Tween and 2 washes in PBS. Next 50 μl/well penta His-HRP (QIAgen, diluted 1:500 in 2% BSA in PBS) was added and the mixture incubated at room temperature for 55 minutes, before washing as before. ELISA signals were detected using SureBlue TMB peroxidase substrate (Insight biotechnology, Middlesex, UK) at 450 nm.
As a control, the above process was repeated with wild-type Pin1 WW domain peptide replacing WW-B1. The results are illustrated in FIG. 6.

VEGFR2-Fc fusion = target: T2, VEGFR2-Fc fusion (Homo sapiens, UniProt P35968); assay: Real time binding assay by biolayer interferometry (Octet Red), steady state analysis
T2 construct: His tag (only implied: capture on TALON beads, detection with penta His-HRP); purchased R&D Systems
T2 sequence (P35968 with tags, fused parts or gaps): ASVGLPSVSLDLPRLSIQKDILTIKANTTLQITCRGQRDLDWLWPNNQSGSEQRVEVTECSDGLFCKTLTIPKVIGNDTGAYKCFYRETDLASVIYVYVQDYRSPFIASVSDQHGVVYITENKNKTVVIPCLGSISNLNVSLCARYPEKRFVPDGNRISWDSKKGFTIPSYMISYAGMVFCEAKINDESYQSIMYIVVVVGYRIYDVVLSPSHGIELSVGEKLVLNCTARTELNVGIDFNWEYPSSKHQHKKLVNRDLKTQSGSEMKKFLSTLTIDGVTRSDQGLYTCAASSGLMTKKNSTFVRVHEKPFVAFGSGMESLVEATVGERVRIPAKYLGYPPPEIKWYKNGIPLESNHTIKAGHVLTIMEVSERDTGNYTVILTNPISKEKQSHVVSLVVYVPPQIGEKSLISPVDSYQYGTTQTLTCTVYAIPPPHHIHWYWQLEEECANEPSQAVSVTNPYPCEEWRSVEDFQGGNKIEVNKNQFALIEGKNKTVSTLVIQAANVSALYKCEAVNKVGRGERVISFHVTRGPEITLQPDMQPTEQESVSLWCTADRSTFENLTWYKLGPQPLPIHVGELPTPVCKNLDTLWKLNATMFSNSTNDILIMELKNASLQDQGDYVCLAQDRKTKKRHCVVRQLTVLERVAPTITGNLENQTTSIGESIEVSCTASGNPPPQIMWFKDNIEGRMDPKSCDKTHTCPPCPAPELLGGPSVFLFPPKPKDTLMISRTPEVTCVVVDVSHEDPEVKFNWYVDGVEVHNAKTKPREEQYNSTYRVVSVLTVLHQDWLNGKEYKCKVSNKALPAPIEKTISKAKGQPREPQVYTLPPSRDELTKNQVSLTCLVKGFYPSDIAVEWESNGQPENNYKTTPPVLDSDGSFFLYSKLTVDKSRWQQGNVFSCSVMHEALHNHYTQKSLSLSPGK
Experimental: Alternatively, real-time binding assays between a chemically synthesised WW domain and ligand may be performed using biolayer interferometry with an Octet Red system (Fortebio, Menlo Park, Calif.). Biotinylated WW domain is immobilised to streptavidin biosensors (Fortebio) at a concentration of 50 ng/μl in PBS. Association curves are then detected by incubating WW domain-coated sensors with different concentrations of ligand (e.g. 1 to 100 nM in PBS), and dissociations detected by incubating the sensors in PBS. The dissociation constant for WW domain binding can be determined by steady state analysis.
Real-time binding assays between the peptides and VEGFR2-Fc fusion were performed using biolayer interferometry with an Octet Red system (Fortebio, Menlo Park, Calif.). WW peptides were immobilised on streptavidin biosensors (Fortebio) at a concentration of 2 μg/ml in kinetic buffer. Association curves were then detected by incubating the immobilised peptide with streptavidin-HRP (1 to 100 nM in kinetic buffer), and dissociations were detected by incubating the sensors in kinetic buffer.

T1 sequence (P35968 with tags, fused parts or gaps): as above

| half-life at 250 μM (Plasma stability assay) [h] | structure after heating to 95° C. and cooling to 25° C. [1] | CD peak at 227-231 nm at 95° C. (folding state) [1] | binding affinity for VEGFR2 (concluded from competition assay) ([2]; control replacing WW-B1) | effect on the binding of VEGFR2 to VEGF ([2]; control replacing WW-B1 in the competition ELISA) | Kd (VEGFR2-Fc fusion; peptide on streptavidin biosensors, 2 μg/ml in kinetic buffer, steady state analysis (Example 4), read-out: dissociation constant / affinity for VEGFR2) [nM] | binding affinity to VEGFR2 compared with non-cyclised WW-B1 (VEGFR2-Fc fusion; tested as set out in Example 2) | Molecule |
| --- | --- | --- | --- | --- | --- | --- | --- |
| 6.2 | able to reform its structure | unfolding |  |  |  |  | CC[C@H](C)[C@H](NC(=O)[C@H](CC(=O)O)NC(=O)[C@H](CC(N)=O)NC(=O)[C@@H](NC(=O)[C@H](Cc1ccc(O)cc1)NC(=O)[C@H](CC(C)C)NC(=O)[C@@H](NC(=O)[C@H](CCCNC(=N)N)NC(=O)CNC(=O)[C@@H]1CCCN1C(=O)[C@H](CO)NC(=O)[C@H](CO)NC(=O)[C@H](Cc1c[nH]c2ccccc12)NC(=O)[C@H](CCSC)NC(=O)[C@H](CCCCN)NC(=O)[C@H](Cc1ccc(O)cc1)NC(=O)[C@H](Cc1c[nH]c2ccccc12)NC(=O)CNC(=O)[C@@H]1CCCN1C(=O)[C@@H]1CCCN1C(=O)[C@H](CC(C)C)NC(=O)[C@H](CCCCN)NC(=O)[C@H](CCC(=O)O)NC(=O)[C@H](CCC(=O)O)NC(=O)[C@H](CC(=O)O)NC(=O)[C@H](C)NC(=O)[C@H](CCSC)NC(=O)CCCC[C@@H]1SC[C@@H]2NC(=O)N[C@@H]21)C(C)C)C(C)C)C(=O)N[C@H](C(=O)N[C@@H](Cc1c[nH]cn1)C(=O)N[C@@H](C)C(=O)N[C@@H](Cc1c[nH]cn1)C(=O)N[C@@H](CCCNC(=N)N)C(=O)N[C@@H](Cc1c[nH]c2ccccc12)C(=O)N[C@@H](CCC(=O)O)C(=O)N[C@@H](CCCNC(=N)N)C(=O)N1CCC[C@H]1C(=O)N[C@@H](CO)C(=O)NCC(N)=O)[C@@H](C)O [WW-B1] (Biotin-MADEEKLPPGWYKMWSSPGRVLYVNDITHAHRWERPSG-NH2; N-terminus and C-terminus assumed) |
|  |  |  | negligible | essentially no effect |  |  | MADEEKLPPGWEKRMSRSSGRVYYFNHITNASQWERPSG [wild-type Pin1 WW domain, peptide fragment of the human Pin1 protein, used as control] |
|  | able to reform its structure | unfolding |  |  | 31 | comparable activity | CC[C@H](C)[C@@H]1NC(=O)[C@H](CC(=O)O)NC(=O)[C@H](CC(N)=O)NC(=O)[C@H](C(C)C)NC(=O)[C@H](Cc2ccc(O)cc2)NC(=O)[C@H](CC(C)C)NC(=O)[C@H](C(C)C)NC(=O)[C@H](CCCNC(=N)N)NC(=O)CNC(=O)[C@@H]2CCCN2C(=O)[C@H](CO)NC(=O)[C@H](CO)NC(=O)[C@H](Cc2c[nH]c3ccccc23)NC(=O)[C@H](CCSC)NC(=O)[C@H](CCCCN)NC(=O)[C@H](Cc2ccc(O)cc2)NC(=O)[C@H](Cc2c[nH]c3ccccc23)NC(=O)CNC(=O)[C@@H]2CCCN2C(=O)[C@@H]2CCCN2C(=O)[C@H](CC(C)C)NC(=O)[C@@H](NC(=O)[C@H](CCC(=O)O)NC(=O)[C@H](CCC(=O)O)NC(=O)[C@H](CC(=O)O)NC(=O)CCCC[C@@H]2SC[C@@H]3NC(=O)N[C@@H]32)CCCCNC(=O)CC[C@@H](C(=O)NCC(N)=O)NC(=O)[C@@H]2CCCN2C(=O)[C@H](CCCNC(=N)N)NC(=O)[C@H](CCC(=O)O)NC(=O)[C@H](Cc2c[nH]c3ccccc23)NC(=O)[C@H](CCCNC(=N)N)NC(=O)[C@H](Cc2c[nH]cn2)NC(=O)[C@H](C)NC(=O)[C@H](Cc2c[nH]cn2)NC(=O)[C@H]([C@@H](C)O)NC1=O [cyclised WW-B1] (Biotin-DEEKLPPGWYKMWSSPGRVLYVNDITHAHRWERPEG-NH2; lactam 4-35) |
